Molecules are shown by their SMILES. Several values for one entry are separate records, joined by “and”; a condition that tells them apart may be missing. Equal entries are not always repeated. Where two headings read alike, the source gives them in different places.

One assay concerns the target EeAChE (Electrophorus electricus, UniProt O42275). Nature of the assay: biochemical. In kind it is biochemical. Here is the method: (§1) The evaluation of the activity of compounds against both EeAChE and eqBuChE was evaluated following the Ellman spectrophotometric method. Briefly, the reaction happens in a final volume of 3 mL of a 0.1 M phosphate-buffered solution at pH = 8.0, containing 5,5′-dithiobis-2-nitrobenzoic acid, EeAChE or eqBuChE, tested compound and bovine albumin serum phosphate-buffered (pH = 8) solution After this pre-incubation period, acetylthiocholine iodide or butyrylthiocholine iodide was added, allowing 15 min of additional incubation time.

A further assay addresses eqBuChE (Equus caballus, UniProt P81908). Nature of the assay: biochemical. The note with it: mean ± SEM, read-out: BuChE IC50. Here is the method: as §1
For a further assay, the system named is Ca^+2 channel. Kind of assay: Calcium channel blockade (FLIPR Calcium 6, KCl/CaCl2-stimulated SH-SY5Y cells). In kind it is cell-based. The note with it: 10 μM; SH-SY5Y cells stimulated with KCl/CaCl2. The protocol:
The calcium channel blockade assay was performed as described earlier. Briefly, the SH-SY5Y cells were seeded out in 96-well dark-walled plates at a density of 1 × 10^5 cells per well. After 24 h, the cells were loaded with FLIPR Calcium 6 indicator (Molecular Devices) for 2 h at 37 °C, according to the manufacturer’s protocol. Compounds were dissolved in an appropriate amount of DMSO at 10 mM concentration and diluted to a final concentration of 10 μM in Hanks′ Balanced Salt Solution (HBSS, Thermo Fisher Scientific) buffered with HEPES (Sigma-Aldrich) at pH = 7.4, and as such used were for treatment of indicator loaded cells (10 min at 37 °C). […] The baseline fluorescence was recorded for 5 s. Then, the cells were stimulated with KCl/CaCl2 solution (in HBSS, final concentration of KCl and CaCl2 was 90 and 5 mM, respectively) and the fluorescence was recorded for a further 30 s. Dimethyl sulfoxide 1% solution in HBSS was used as a vehicle control. Nimodipine (Cayman Chemical Company) was used as a reference inhibitor at 10 μM and compounds were assessed at the same final concentration in triplicate in three independent experiments. Fluorescent intensity values were normalized to the baseline.

A short description of assay [1]: Oxygen radical absorbance capacity assay (ORAC-FL). The note with it: Trolox equivalents, mean (n = 3) ± SEM. Here is the method:
Briefly, fluorescein and antioxidant were incubated in a black 96-well microplate (Nunc) for 15 min at 37 °C. 2,2′-Azobis(amidinopropane) dihydrochloride was then added quickly using the built-in injector of Varioskan Flash plate reader (Thermo Scientific). […] All the reactions were made in triplicate and at least three different assays were performed for each sample [9, 30].

For assay [2], the system named is SH-SY5Y cells. Nature of the assay: Neuroprotection against H2O2-induced cell death in SH-SY5Y cells (MTS). In kind it is cell-based. The note with it: for H2O2 (%) neuroprotection: H2O2 200 µM. The protocol:
(§2) The most balanced compounds were then submitted to evaluation of their neuroprotection activity. For this purpose, cytotoxicity was induced by H2O2, a well-known toxic responsible for the generation of ROS and by mitochondrial respiratory chain blockers oligomycin rotenone (O/R). Prior to the neuroprotective assay, the effect of the compounds on cell viability was evaluated at 1 and 10 µM, showing no cytotoxicity against SH-SY5Y cells.
(§3) SH-SY5Y cells were seeded in 96-well culture plates at a density of 12 × 10^4 cells per well in DMEM/F12 (1:1) medium supplemented with 10% fetal bovine serum, 1X non-essential amino acids, 100 units/mL penicillin and […] streptomycin (Dutscher, France). After 48 h of incubation, the cultures were treated with 100 µl of the test compounds or DMSO (0.1%) in the same medium. After 24 h, the cells were co-incubated with H2O2 (200 µM) or O/R (O at 10 µM/R at 30 µM) with or without the tested compounds at noncytotoxic concentrations for an additional period of 24 h. The percentage of cell viability was measured using CellTiter 96 AQueous Non-Radioactive Cell Proliferation (MTS) Assay (Promega, France).

In assay [3] the test system is SH-SY5Y cells. Kind of assay: Neuroprotection against oligomycin A/rotenone (O/R)-induced cell death in SH-SY5Y cells (MTS). In kind it is cell-based. The note with it: for O/R (%) neuroprotection: O at 10 µM/R at 30 µM. Here is the method:
as §2, §3

In assay [4] the test system is SH-SY5Y cells. Set-up: method as in PMID 27736061. The note with it: 0.1 µM; cited from earlier work.
Assay [5] relates to SH-SY5Y cells. Also on record: method as in PMID 27736061. The note with it: 0.1 µM, cited from earlier work.

EeAChE, sequence (O42275 24-633): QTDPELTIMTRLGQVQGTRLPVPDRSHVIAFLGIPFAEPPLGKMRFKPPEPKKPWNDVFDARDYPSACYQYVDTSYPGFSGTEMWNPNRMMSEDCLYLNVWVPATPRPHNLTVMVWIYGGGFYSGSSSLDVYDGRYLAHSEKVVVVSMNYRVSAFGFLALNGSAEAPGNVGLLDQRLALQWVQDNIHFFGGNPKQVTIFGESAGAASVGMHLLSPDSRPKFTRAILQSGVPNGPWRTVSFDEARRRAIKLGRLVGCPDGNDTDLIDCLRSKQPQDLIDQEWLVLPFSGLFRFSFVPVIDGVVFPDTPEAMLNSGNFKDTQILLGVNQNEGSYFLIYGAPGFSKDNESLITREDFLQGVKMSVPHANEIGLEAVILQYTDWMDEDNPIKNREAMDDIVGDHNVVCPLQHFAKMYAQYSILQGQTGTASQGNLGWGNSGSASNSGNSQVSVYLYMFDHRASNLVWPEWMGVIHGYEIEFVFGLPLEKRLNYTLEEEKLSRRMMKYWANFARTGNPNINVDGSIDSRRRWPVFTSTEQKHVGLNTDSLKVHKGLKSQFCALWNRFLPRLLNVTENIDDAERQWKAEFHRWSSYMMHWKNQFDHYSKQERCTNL
eqBuChE, sequence (P81908 whole entry): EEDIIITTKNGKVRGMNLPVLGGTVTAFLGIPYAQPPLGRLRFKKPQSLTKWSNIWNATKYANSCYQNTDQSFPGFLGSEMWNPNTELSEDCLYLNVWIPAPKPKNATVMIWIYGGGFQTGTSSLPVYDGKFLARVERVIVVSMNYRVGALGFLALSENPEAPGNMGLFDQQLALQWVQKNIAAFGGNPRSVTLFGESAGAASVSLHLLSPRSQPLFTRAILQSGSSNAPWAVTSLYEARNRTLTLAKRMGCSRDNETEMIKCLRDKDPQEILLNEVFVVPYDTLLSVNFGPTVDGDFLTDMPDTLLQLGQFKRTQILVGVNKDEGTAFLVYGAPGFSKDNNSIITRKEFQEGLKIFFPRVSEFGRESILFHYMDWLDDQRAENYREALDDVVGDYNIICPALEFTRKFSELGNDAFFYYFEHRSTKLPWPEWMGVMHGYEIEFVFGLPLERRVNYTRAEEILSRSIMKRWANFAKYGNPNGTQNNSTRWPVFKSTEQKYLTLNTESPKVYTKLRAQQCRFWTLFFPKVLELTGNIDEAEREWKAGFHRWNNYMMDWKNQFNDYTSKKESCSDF

Regarding `COC(=O)C1=C(C)NC(C)=C(C(=O)OC)C1c1ccc(OCCCCCN2CCC(Cc3ccccc3)CC2)cc1` [3h, Dimethyl-4-(4-((5-(4-benzylpiperidin-1-yl)pentyl)oxy)phenyl)-2,6-dimethyl-1,4-dihydropyridine-3,5-dicarboxylate], the “fold less active than tacrine (AChE IC50)” value on EeAChE (AChE IC50 vs tacrine) is listed as 60 fold. The IC50 (in general, the point on the concentration scale where inhibition reaches its midpoint) on EeAChE (EeAChE, mean ± SEM, read-out: AChE IC50) is 1800 ± 100 nM; on eqBuChE, 2000 ± 100 nM. The “(%) Ca Flux Inhibition” value with Ca^+2 channel is given as 47.72%. Further, the ORAC in assay [1] was 2.54 TE and 2.54 ± 0.04 TE. In addition, the “H2O2 (%) neuroprotection” value in the assay with SH-SY5Y cells [2] (0.3 µM) was 28% and 28.68% and 28.68 ± 0.02 %; in the assay with SH-SY5Y cells [2] (1 µM), 23.32 ± 0.02 %. The “O/R (%) neuroprotection” value with SH-SY5Y cells [3] (0.3 µM) is 38.29% and 38.29 ± 0.04 %; in the assay with SH-SY5Y cells [3] (1 µM), 33.90% and 33.90 ± 0.05 %.
Take `CCOC(=O)C1=C(C)NC(C)=C(C(=O)OCC)C1c1ccc(OCCCCCCN2CCN(C)CC2)cc1` [3m, 3,5-Diethyl-2,6-dimethyl-4-(4-{[6-(4-methylpiperazin-1-yl)hexyl]oxy}phenyl)-1,4-dihydro-pyridine-3,5-dicarboxylate]: the inhibition (in general, how much of the control response was suppressed) at 10 µM at EeAChE (read-out: AChE % inhibition at 10 μM (no IC50 given), EeAChE, 10 μM) was below 50%. Moreover, on eqBuChE, the IC50 came out at 5500 ± 100 nM. In addition, the “(%) Ca Flux Inhibition” value in the assay on Ca^+2 channel is on record as 50.6%. Further, the ORAC turned out to be 1.10 ± 0.08 TE in assay [1] and 1.10 TE in assay [1] (listed as 2m). The “neuroprotective effect against H2O2 (in words)” value in the assay on SH-SY5Y cells [2] was “modest”. The “H2O2 (%) neuroprotection” value came out at 9.55 ± 0.00% in the assay with SH-SY5Y cells [2] (0.3 µM) and 4.63 ± 0.02% in the assay on SH-SY5Y cells [2] (1 µM). Moreover, the “neuroprotective effect against O/R (in words)” value in the assay on SH-SY5Y cells [3] was “modest”. The “O/R (%) neuroprotection” value with SH-SY5Y cells [3] (0.3 µM) is 8.95 ± 0.00%; in the assay with SH-SY5Y cells [3] (1 µM), 16.65 ± 0.00%.
For the compound `COc1ccc2[nH]cc(CCNC(C)=O)c2c1` [MEL, melatonin], the “H2O2 (%) neuroprotection” value in the assay on SH-SY5Y cells [4] is 55.4 ± 7.73 *[10] %. The “O/R (%) neuroprotection” value in the assay with SH-SY5Y cells [5] (listed as Melatonin) is 66.6 ± 3.01 ***[10] %; in the assay on SH-SY5Y cells [5] (listed as melatonin), 66.6%.

The record behind these values is article PMC7589057, “Synthesis of Hantzsch Adducts as Cholinesterases and Calcium Flux inhibitors, Antioxidants and Neuroprotectives” (International Journal of Molecular Sciences, 2020).
